Data taken from patent US10208068B2, “Macrocycles as factor XIa inhibitors” (BRISTOL-MYERS SQUIBB COMPANY, priority 2011, dated 2019).
Values joined by “and” are separate entries in the source; they are usually repeats but may differ in a detail not shown here. Equal values may be shown once. Read-outs that look alike come from different tables or passages of the source.

Experiments:
[1] = 12-membered ring
[2] = from C=CC[C@H](NC(=O)OC(C)(C)C)c1cc(-c2ccc(NC(=O)OC)cc2NC(=O)C(C=C)CC)ccn1, rcm bond, Grubbs II, microwave, DCE, 120.0 °C, 0.42 h

In the case of `CCOC(=O)C1C/C=C/C[C@H](NC(=O)OC(C)(C)C)c2cc(ccn2)-c2ccc(NC(=O)OC)cc2N1` (some centres unmarked), the ring closure, isolated yield ([1]; from C=CCC(Nc1cc(NC(=O)OC)ccc1-c1ccnc([C@H](CC=C)NC(=O)OC(C)(C)C)c1)C(=O)OCC, rcm bond, Grubbs (as described before)) was 47%.
`COC(=O)Nc1ccc(-c2ccnc([C@H](CCCO)NC(=O)OC(C)(C)C)c2)c(N)c1` gave a ring closure, isolated yield ([1]; the molecule shown is the open-chain precursor, other bond, phosgene, then TEA/DMAP, DCM, 3.3 mM, 2 steps) of 57%.
Work on `COC(=O)Nc1ccc2c(c1)NC(=O)C(C)/C=C/C[C@H](NC(=O)OC(C)(C)C)c1cc-2nnc1Cl` (some centres unmarked) yielded a ring closure, isolated yield ([1]; from C=CC[C@H](NC(=O)OC(C)(C)C)c1cc(-c2ccc(NC(=O)OC)cc2NC(=O)C(C)C=C)nnc1Cl, rcm bond, Grubbs II (0.4 eq), 1,2-dichloroethane, 4.7 mM, 120.0 °C, 0.5 h) of 22%.
With `COC(=O)Nc1ccc2c(c1)NC(=O)C(C)C=CC[C@H](NC(=O)OC(C)(C)C)c1cc-2cc(=O)[nH]1` (some centres unmarked) the ring closure, yield after HPLC (from C=CC[C@H](NC(=O)OC(C)(C)C)c1cc(-c2ccc(NC(=O)OC)cc2NC(=O)C(C)C=C)cc(=O)[nH]1, rcm bond, 12-membered ring, Grubbs II (0.4 eq), microwave, DCE, 18.0 mM, 120.0 °C, 0.5 h) was 19% and 35%.
For `COC(=O)Nc1ccc2c(c1)NC(=O)C/C=C/C(C)[C@H](NC(=O)OC(C)(C)C)c1cc-2ccn1` (some centres unmarked), the ring closure, yield after HPLC (from C=CCC(=O)Nc1cc(NC(=O)OC)ccc1-c1ccnc([C@@H](NC(=O)OC(C)(C)C)C(C)C=C)c1, rcm bond, 12-membered ring, Grubbs II, toluene, 9.0 mM, 160.0 °C, 0.33 h) was 12%.
Work on `COC(=O)Nc1ccc2c(c1)NC(=O)C/C=C/C[C@H](NC(=O)OC(C)(C)C)c1cc-2ccn1` yielded a ring closure, isolated yield ([1]; from C=CCC(=O)Nc1cc(NC(=O)OC)ccc1-c1ccnc([C@H](CC=C)NC(=O)OC(C)(C)C)c1, rcm bond, Grubbs II (0.4 eq)/pTsOH, DCM, 4.0 mM, 40.0 °C, 3.0 h) of 26%.
Molecule `COC(=O)Nc1ccc2c(c1)NC(=O)CC/C=C/C[C@H](NC(=O)OC(C)(C)C)c1cc-2cc(=O)[nH]1` has a ring closure, yield after HPLC (from C=CCCC(=O)Nc1cc(NC(=O)OC)ccc1-c1cc([C@H](CC=C)NC(=O)OC(C)(C)C)[nH]c(=O)c1, rcm bond, 13-membered ring, Grubbs II, microwave, DCE, 18.9 mM, 120.0 °C, 0.5 h) of 26%.
Molecule `COC(=O)Nc1ccc2c(c1)NC(=O)CC/C=C/C[C@H](NC(=O)OC(C)(C)C)c1nc-2cn1COCC[Si](C)(C)C` has a ring closure, yield after HPLC (from C=CCCC(=O)Nc1cc(NC(=O)OC)ccc1-c1cn(COCC[Si](C)(C)C)c([C@H](CC=CN)C(=O)OC(C)(C)C)n1, rcm bond, 13-membered ring) of 42%.
In the case of `COC(=O)Nc1ccc2c(c1)NC(=O)CCOC[C@H](NC(=O)OC(C)(C)C)c1nc-2cn1COCC[Si](C)(C)C`, the ring closure, yield after HPLC (from COC(=O)Nc1ccc(-c2cn(COCC[Si](C)(C)C)c([C@H](COCCC(=O)O)NC(=O)OC(C)(C)C)n2)c(N)c1, amide bond, 12-membered ring, BOP/DMAP/DIEA, DMF, 1.0 mM, 25.0 °C, 16.0 h) was 75%.
`COC(=O)Nc1ccc2c(c1)NC(=O)COCC[C@H](NC(=O)OCc1ccccc1)c1cc-2ccn1` gave a ring closure, yield after HPLC (from COC(=O)Nc1ccc(-c2ccnc([C@H](CCOCC(=O)O)NC(=O)OCc3ccccc3)c2)c(N)c1, amide bond, 12-membered ring, BOP/DMAP/DIEA, DCM/DMF, 2.8 mM, 25.0 °C, 6.0 h) of 27%.
With `COC(=O)Nc1ccc2c(c1)NC(=O)[C@H](C)/C=C/C[C@H](NC(=O)OC(C)(C)C)c1cc-2ccn1` the ring closure, isolated yield ([1]; from C=CC[C@H](NC(=O)OC(C)(C)C)c1cc(-c2ccc(NC(=O)OC)cc2NC(=O)C(C)C=C)ccn1, rcm bond, Grubbs II (0.1 eq)/pTsOH, DCM, 4.0 mM, 40.0 °C, 6.0 h) was 25% and the ring closure, isolated yield ([1]; from C=CC[C@H](NC(=O)OC(C)(C)C)c1cc(-c2ccc(NC(=O)OC)cc2NC(=O)[C@H](C)C=C)ccn1, rcm bond, Grubbs II (0.2 eq)/pTsOH, DCM, 11.8 mM, 4.0 h) was 71%.
`COC(=O)Nc1ccc2c(c1)NC(=O)[C@H](C)C=CC[C@H](NC(=O)OC(C)(C)C)c1nc-2cn1COCC[Si](C)(C)C` showed a ring closure, isolated yield ([1]; from C=CC[C@H](NC(=O)OC(C)(C)C)c1nc(-c2ccc(NC(=O)OC)cc2NC(=O)[C@H](C)C=C)cn1COCC[Si](C)(C)C, rcm bond, Grubbs II (0.4 eq)/pTsOH, DCM, 10.0 mM, 40.0 °C, 21.5 h) of 41%.
For `COC(=O)Nc1ccc2c(c1)NC(=O)[C@H](C)CCC[C@H](NC(=O)OC(C)(C)C)c1nc-2cn1COCC[Si](C)(C)C`, the ring closure, yield after HPLC (from COC(=O)Nc1ccc(-c2cn(COCC[Si](C)(C)C)c([C@H](CCCC(C)C(=O)O)NC(=O)OC(C)(C)C)n2)c(N)c1, amide bond, 12-membered ring, BOP/DMAP/DIEA, DCM/DMF, 3.4 mM, 50.0 °C, 96.0 h) was 22%.
Work on `C[C@@H]1/C=C/C[C@H](NC(=O)OC(C)(C)C)c2cn(COCC[Si](C)(C)C)c(n2)-c2ccc([N+](=O)[O-])cc2NC1=O` yielded a ring closure, isolated yield ([1]; from C=CC[C@H](NC(=O)OC(C)(C)C)c1cn(COCC[Si](C)(C)C)c(-c2ccc([N+](=O)[O-])cc2NC(=O)[C@H](C)C=C)n1, rcm bond, Grubbs II (0.287 mmol), DCM, 16.0 h) of 56%.
Molecule `CCC1/C=C/C[C@H](NC(=O)OC(C)(C)C)c2cc(ccn2)-c2ccc(NC(=O)OC)cc2NC1=O` (single isomer, unassigned; diastereomer a) has a ring closure, isolated yield [1, 2] of 10%.
For `CCC1/C=C/C[C@H](NC(=O)OC(C)(C)C)c2cc(ccn2)-c2ccc(NC(=O)OC)cc2NC1=O` (single isomer, unassigned; diastereomer b), the ring closure, isolated yield [1, 2] was 16%.
